Measured values from US12662489B2 (Sitryx Therapeutics Limited, priority 2023, dated 2026).

Columns and labels:
[1] = molecular target: T1, MTHFD1 recombinant human enzyme (Homo sapiens, UniProt P11586); assay: MTHFD1 inhibition assay (NAD(P)H-Glo luminescence); conditions: MTHFD1 IC50, recombinant human enzyme 200 nM, NADP, band
T1 sequence (P11586 2-291 limits assumed): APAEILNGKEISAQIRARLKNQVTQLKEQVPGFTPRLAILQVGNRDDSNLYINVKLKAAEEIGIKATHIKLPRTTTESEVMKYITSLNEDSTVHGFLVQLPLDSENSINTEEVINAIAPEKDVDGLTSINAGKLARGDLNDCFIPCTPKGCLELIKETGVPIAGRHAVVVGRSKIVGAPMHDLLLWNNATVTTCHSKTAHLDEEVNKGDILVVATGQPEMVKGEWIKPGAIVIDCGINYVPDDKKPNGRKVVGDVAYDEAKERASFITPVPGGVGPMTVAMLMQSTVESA

[2] = molecular target: T2, MTHFD2 recombinant human enzyme (Homo sapiens, UniProt P13995); assay: MTHFD2 inhibition assay (NAD(P)H-Glo luminescence); conditions: for MTHFD1/MTHFD2 IC50 ratio: selectivity of MTHFD2 inhibition over MTHFD1, band
T2 sequence (P13995 36-350): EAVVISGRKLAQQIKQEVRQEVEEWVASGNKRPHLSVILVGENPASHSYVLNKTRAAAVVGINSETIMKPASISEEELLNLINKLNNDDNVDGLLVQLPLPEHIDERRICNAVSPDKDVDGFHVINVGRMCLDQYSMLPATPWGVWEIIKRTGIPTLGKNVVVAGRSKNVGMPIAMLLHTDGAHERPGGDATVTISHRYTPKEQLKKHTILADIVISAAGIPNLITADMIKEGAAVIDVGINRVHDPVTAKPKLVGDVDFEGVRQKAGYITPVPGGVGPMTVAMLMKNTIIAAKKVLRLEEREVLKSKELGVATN

SMILES	IC50 [1] [nM]	IC50 [2] [nM]	MTHFD1/MTHFD2 IC50 ratio [2]
COC[C@H]1CN(c2ccc3c4c(c(=O)oc3c2Cl)CN(C(=O)c2ccc(C(=O)NS(=O)(=O)N(C)C)c(OC3CCC3)c2F)CC4)CCN1C [Example 52, (R)-4-(7-chloro-8-(3-(methoxymethyl)-4-methylpiperazin-1-yl)-5-oxo-1,3,4,5-tetrahydro-2H-chromeno[3,4-c]pyridine-3-carbonyl)-2-cyclobutoxy-N-(N,N-dimethylsulfamoyl)-3-fluorobenzamide]	1 to 10	1 to 10	–
COC[C@H]1CN(c2ccc3c4c(c(=O)oc3c2Cl)CN(C(=O)c2ccc(C(=O)NS(=O)(=O)N3CCCC3)c(OC3CCC3)c2F)CC4)CCN1C [Example 53, (R)-4-(7-chloro-8-(3-(methoxymethyl)-4-methylpiperazin-1-yl)-5-oxo-1,3,4,5-tetrahydro-2H-chromeno[3,4-c]pyridine-3-carbonyl)-2-cyclobutoxy-3-fluoro-N-(pyrrolidin-1-ylsulfonyl)benzamide]	1 to 10	10 to 100	F (<3)
COC[C@H]1CN(c2cc(C)c3c4c(c(=O)oc3c2C)CN(C(=O)c2ccc(C(=O)NS(=O)(=O)N(C)C)c(N(C)C3CCC3)c2)CC4)CCN1C [Example 55, (R)-2-(cyclobutyl(methyl)amino)-N-(N,N-dimethylsulfamoyl)-4-(8-(3-(methoxymethyl)-4-methylpiperazin-1-yl)-7,10-dimethyl-5-oxo-1,3,4,5-tetrahydro-2H-chromeno[3,4-c]pyridine-3-carbonyl)benzamide]	10 to 100	1 to 10	G (^ 3 to 9.0)
COC[C@H]1CN(c2ccc3c4c(c(=O)oc3c2C)CN(C(=O)c2ccc(C(=O)NS(=O)(=O)N(C)C(C)C)c(OC3CCC3)c2F)CC4)CCN1C [Example 56, (R)-2-cyclobutoxy-3-fluoro-N-(N-isopropyl-N-methylsulfamoyl)-4-(8-(3-(methoxymethyl)-4-methylpiperazin-1-yl)-7-methyl-5-oxo-1,3,4,5-tetrahydro-2H-chromeno[3,4-c]pyridine-3-carbonyl)benzamide]	1 to 10	1 to 10	F (<3)
COC[C@H]1CN(c2ccc3c4c(c(=O)oc3c2Cl)CN(C(=O)c2ccc(C(=O)NS(=O)(=O)C3(C)CC3)c(OC3CCCC3)c2F)CC4)CCN1C [Example 57, (R)-4-(7-chloro-8-(3-(methoxymethyl)-4-methylpiperazin-1-yl)-5-oxo-1,3,4,5-tetrahydro-2H-chromeno[3,4-c]pyridine-3-carbonyl)-2-(cyclopentyloxy)-3-fluoro-N-((1-methylcyclopropyl)sulfonyl)benzamide]	1 to 10	1 to 10	F (<3)
COC[C@H]1CN(c2ccc3c4c(c(=O)oc3c2C)CN(C(=O)c2ccc(C(=O)NS(=O)(=O)N(C)C(C)C)c(OC3CCCC3)c2F)CC4)CCN1C [Example 58, (R)-2-(cyclopentyloxy)-3-fluoro-N-(N-isopropyl-N-methylsulfamoyl)-4-(8-(3-(methoxymethyl)-4-methylpiperazin-1-yl)-7-methyl-5-oxo-1,3,4,5-tetrahydro-2H-chromeno[3,4-c]pyridine-3-carbonyl)benzamide]	1 to 10	1 to 10	–
COC[C@H]1CN(c2ccc3c4c(c(=O)oc3c2C)CN(C(=O)c2ccc(C(=O)NS(=O)(=O)C3(C)CC3)c(O[C@@H]3C[C@@H]5C[C@@H]5C3)c2F)CC4)CCN1C [Example 59, 2-(((1R,3r,5S)-bicyclo[3.1.0]hexan-3-yl)oxy)-3-fluoro-4-(8-((R)-3-(methoxymethyl)-4-methylpiperazin-1-yl)-7-methyl-5-oxo-1,3,4,5-tetrahydro-2H-chromeno[3,4-c]pyridine-3-carbonyl)-N-((1-methylcyclopropyl)sulfonyl)benzamide]	1 to 10	1 to 10	F (<3)
COC[C@H]1CN(c2ccc3c4c(c(=O)oc3c2Cl)CN(C(=O)c2ccc(C(=O)NS(=O)(=O)C3(C)CC3)c(O[C@@H]3C[C@@H]5C[C@@H]5C3)c2F)CC4)CCN1C [Example 60, 2-(((1R,3r,5S)-bicyclo[3.1.0]hexan-3-yl)oxy)-4-(7-chloro-8-((R)-3-(methoxymethyl)-4-methylpiperazin-1-yl)-5-oxo-1,3,4,5-tetrahydro-2H-chromeno[3,4-c]pyridine-3-carbonyl)-3-fluoro-N-((1-methylcyclopropyl)sulfonyl)benzamide]	1 to 10	1 to 10	F (<3)
COC[C@H]1CN(c2ccc3c4c(c(=O)oc3c2Cl)CN(C(=O)c2ccc(C(=O)NS(=O)(=O)N(C)C)c(O[C@@H]3C[C@@H]5C[C@@H]5C3)c2F)CC4)CCN1C [Example 61, 2-(((1R,3r,5S)-bicyclo[3.1.0]hexan-3-yl)oxy)-4-(7-chloro-8-((R)-3-(methoxymethyl)-4-methylpiperazin-1-yl)-5-oxo-1,3,4,5-tetrahydro-2H-chromeno[3,4-c]pyridine-3-carbonyl)-N-(N,N-dimethylsulfamoyl)-3-fluorobenzamide]	1 to 10	1 to 10	F (<3)
COC[C@H]1CN(c2ccc3c4c(c(=O)oc3c2Cl)CN(C(=O)c2ccc(C(=O)NS(=O)(=O)N3CCCC3)c(O[C@@H]3C[C@@H]5C[C@@H]5C3)c2F)CC4)CCN1C [Example 62, 2-(((1R,3r,5S)-bicyclo[3.1.0]hexan-3-yl)oxy)-4-(7-chloro-8-((R)-3-(methoxymethyl)-4-methylpiperazin-1-yl)-5-oxo-1,3,4,5-tetrahydro-2H-chromeno[3,4-c]pyridine-3-carbonyl)-3-fluoro-N-(pyrrolidin-1-ylsulfonyl)benzamide]	1 to 10	10 to 100	F (<3)
COC[C@H]1CN(c2ccc3c4c(c(=O)oc3c2C)CN(C(=O)c2ccc(C(=O)NS(=O)(=O)N3CCCC3)c(O[C@@H]3C[C@@H]5C[C@@H]5C3)c2F)CC4)CCN1C [Example 63, 2-(((1R,3r,5S)-bicyclo[3.1.0]hexan-3-yl)oxy)-3-fluoro-4-(8-((R)-3-(methoxymethyl)-4-methylpiperazin-1-yl)-7-methyl-5-oxo-1,3,4,5-tetrahydro-2H-chromeno[3,4-c]pyridine-3-carbonyl)-N-(pyrrolidin-1-ylsulfonyl)benzamide]	1 to 10	1 to 10	F (<3)
COC[C@H]1CN(c2ccc3c4c(c(=O)oc3c2C)CN(C(=O)c2ccc(C(=O)NS(=O)(=O)N(C)C(C)C)c(O[C@@H]3C[C@@H]5C[C@@H]5C3)c2F)CC4)CCN1C [Example 64, 2-(((1R,3r,5S)-bicyclo[3.1.0]hexan-3-yl)oxy)-3-fluoro-N-(N-isopropyl-N-methylsulfamoyl)-4-(8-((R)-3-(methoxymethyl)-4-methylpiperazin-1-yl)-7-methyl-5-oxo-1,3,4,5-tetrahydro-2H-chromeno[3,4-c]pyridine-3-carbonyl)benzamide]	1 to 10	1 to 10	F (<3)
COC[C@H]1CN(c2ccc3c4c(c(=O)oc3c2Cl)CN(C(=O)c2ccc(C(=O)NS(=O)(=O)N(C)C(C)C)c(O[C@@H]3C[C@@H]5C[C@@H]5C3)c2F)CC4)CCN1C [Example 65, 2-(((1R,3r,5S)-bicyclo[3.1.0]hexan-3-yl)oxy)-4-(7-chloro-8-((R)-3-(methoxymethyl)-4-methylpiperazin-1-yl)-5-oxo-1,3,4,5-tetrahydro-2H-chromeno[3,4-c]pyridine-3-carbonyl)-3-fluoro-N-(N-isopropyl-N-methylsulfamoyl)benzamide]	1 to 10	10 to 100	F (<3)
COC[C@H]1CN(c2cc(C)c3c4c(c(=O)oc3c2C)CN(C(=O)c2ccc(C(=O)NS(=O)(=O)N3CCCC3)c(O[C@H]3C[C@@H]5C[C@@H]5C3)c2F)CC4)CCN1C [Example 66, 2-(((1R,3s,5S)-bicyclo[3.1.0]hexan-3-yl)oxy)-3-fluoro-4-(8-((R)-3-(methoxymethyl)-4-methylpiperazin-1-yl)-7,10-dimethyl-5-oxo-1,3,4,5-tetrahydro-2H-chromeno[3,4-c]pyridine-3-carbonyl)-N-(pyrrolidin-1-ylsulfonyl)benzamide]	1 to 10	1 to 10	F (<3)
COC[C@H]1CN(c2cc(C)c3c4c(c(=O)oc3c2C)CN(C(=O)c2ccc(C(=O)NS(=O)(=O)N(C)C)c(O[C@H]3C[C@@H]5C[C@@H]5C3)c2F)CC4)CCN1C [Example 67, 2-(((1R,3s,5S)-bicyclo[3.1.0]hexan-3-yl)oxy)-N-(N,N-dimethylsulfamoyl)-3-fluoro-4-(8-((R)-3-(methoxymethyl)-4-methylpiperazin-1-yl)-7,10-dimethyl-5-oxo-1,3,4,5-tetrahydro-2H-chromeno[3,4-c]pyridine-3-carbonyl)benzamide]	1 to 10	1 to 10	F (<3)
